“And” between values parts separate entries of the source, which are not always exact repeats. Identical values can stand only once. A value given as a limit tells only on which side of the number the result lay.

The target in this assay is SARS2 protease (Severe acute respiratory syndrome coronavirus 2, UniProt P0DTD1). Kind of assay: SARS-CoV-2 protease inhibition assay (SARS2 FRET protease assay). Format: biochemical. Particulars: SARS-CoV-2 protease 25 nM, FRET, peptide substrate 1.3 μM, 30 minutes at 30° C., compounds 20 μM to 1.0 nM; read-out: IC50.
Usually IC50 stands for the midpoint of a concentration-inhibition curve. Consider `O=C[C@H](CCC(=O)NC1(Cc2ccccc2)CC1)NC(=O)[C@H](CC1CCCCC1)NC(=O)OCc1cccc(Cl)c1` [Compound C33, 3-Chlorobenzyl ((S)-1-(((S)-5-((1-benzylcyclopropyl)amino)-1,5-dioxopentan-2-yl)amino)-3-cyclohexyl-1-oxopropan-2-yl)carbamate], for which the IC50 was more than 200000 nM.

In the case of `CC(C)C[C@H](NC(=O)OC1CCN(C(=O)OC(C)(C)C)CC1)C(=O)N[C@H](C=O)C[C@@H]1CCNC1=O` [Compound C34, Tert-butyl 4-((((S)-4-methyl-1-oxo-1-(((S)-1-oxo-3-((S)-2-oxopyrrolidin-3-yl)propan-2-yl)amino)pentan-2-yl)carbamoyl)oxy) piperidine-1-carboxylate], the IC50 is 100 nM.

`CN(Cc1cccc(Cl)c1)C(=O)N[C@@H](CC1CCCCC1)C(=O)N[C@H](C=O)CCC(=O)N1CCOc2ccccc2C1` [Compound C35, (S)-2-(3-(3-Chlorobenzyl)-3-methylureido)-3-cyclohexyl-N—((S)-5-(2,3-dihydrobenzo[f][1,4]oxazepin-4(5H)-yl)-1,5-dioxopentan-2-yl)propanamide]: the IC50 turned out to be 18900 nM.

For the compound `CCOP(=O)(OCC)C(O)[C@H](CC1CCNC1=O)NC(=O)[C@H](Cc1ccccc1)NC(=O)OCc1cccc(Cl)c1` (some centres unmarked) [Compound C36], the IC50 came to 2500 nM.

As to `CC(C)C[C@H](NC(=O)N(Cc1ccccc1)C1CCN(C(=O)OC(C)(C)C)CC1)C(=O)N[C@H](C=O)C[C@@H]1CCNC1=O` [Compound C37, Tert-butyl 4-(1-benzyl-3-((S)-4-methyl-1-oxo-1-(((S)-1-oxo-3-((S)-2-oxopyrrolidin-3-yl)propan-2-yl)amino)pentan-2-yl)ureido)piperidine-1-carboxylate], the IC50 was 137 nM and 262 nM.

For the compound `CC(C)C[C@H](NC(=O)OC(Cc1ccccc1)c1ccccc1)C(=O)N[C@H](C=O)C[C@@H]1CCNC1=O` (stereo partly drawn) [Compound C38, 1,2-Diphenylethyl ((S)-4-methyl-1-oxo-1-(((S)-1-oxo-3-((S)-2-oxopyrrolidin-3-yl)propan-2-yl)amino)pentan-2-yl)carbamate], the half-maximal inhibitory concentration (IC50) was 16 nM.

On to `CC(C)C[C@H](NC(=O)OC(C)Cc1ccccc1)C(=O)N[C@H](C=O)C[C@@H]1CCNC1=O` (stereo partly drawn) [Compound C39, 1-Phenylpropan-2-yl ((S)-4-methyl-1-oxo-1-(((S)-1-oxo-3-((S)-2-oxopyrrolidin-3-yl)propan-2-yl)amino)pentan-2-yl)carbamate], for which the IC50 was found to be 153 nM.

As to `CC(C)C[C@H](NC(=O)N(Cc1ccccc1)C1CCN(C(=O)OC(C)(C)C)CC1)C(=O)N[C@@H](C[C@@H]1CCNC1=O)C(O)S(=O)(=O)O` (stereo partly drawn) [Compound C40, (2S)-2-((S)-2-(3-benzyl-3-(1-(tert-butoxycarbonyl)piperidin-4-yl)ureido)-4-methylpentanamido)-1-hydroxy-3-((S)-2-oxopyrrolidin-3-yl)propane-1-sulfonate], the IC50 is 173 nM and 221 nM.

As for `CCOP(=O)(OCC)C(O)C(CC1CC(Cc2ccccc2)NC1=O)NC(=O)[C@H](CC1CCCCC1)NC(=O)OCc1cccc(Cl)c1` (stereo partly drawn) [Compound C41, 3-Chlorobenzyl ((2S)-1-((3-(5-benzyl-2-oxopyrrolidin-3-yl)-1-(diethoxyphosphoryl)-1-hydroxypropan-2-yl)amino)-3-cyclohexyl-1-oxopropan-2-yl)carbamate], the half-maximal inhibitory concentration (IC50) was found to be 308 nM.

As to `COc1cccc(CC2(OC(=O)N[C@@H](CC(C)C)C(=O)N[C@H](C=O)C[C@@H]3CCNC3=O)CC2)c1` [Compound C42, 1-(3-Methoxybenzyl)cyclopropyl ((S)-4-methyl-1-oxo-1-(((S)-1-oxo-3-((S)-2-oxopyrrolidin-3-yl)propan-2-yl)amino)pentan-2-yl)carbamate], the IC50 amounted to 356 nM.

In the case of `CC(C)C[C@H](NC(=O)OC1CCCC1Cc1ccccc1)C(=O)N[C@H](C=O)C[C@@H]1CCNC1=O` (stereo partly drawn) [Compound C43, 2-benzylcyclopentyl ((S)-4-methyl-1-oxo-1-(((S)-1-oxo-3-((S)-2-oxopyrrolidin-3-yl)propan-2-yl)amino)pentan-2-yl) carbamate], the 50% inhibitory concentration (IC50) is 56 nM.

As to `CC(C)C[C@H](NC(=O)OC1(Cc2ccccc2)CC1)C(=O)N[C@H](C=O)C[C@@H]1CCNC1=O` [Compound C44, 1-Benzylcyclopropyl ((S)-4-methyl-1-oxo-1-(((S)-1-oxo-3-((S)-2-oxopyrrolidin-3-yl)propan-2-yl)amino)pentan-2-yl) carbamate], the IC50 came to 331 nM.

On to `CC(C)C[C@H](NC(=O)OC1(Cc2cccc(Cl)c2)CC1)C(=O)N[C@H](C=O)C[C@@H]1CCNC1=O` [Compound C45, 1-(3-Chlorobenzyl) cyclopropyl ((S)-4-methyl-1-oxo-1-(((S)-1-oxo-3-((S)-2-oxopyrrolidin-3-yl)propan-2-yl)amino)pentan-2-yl)carbamate], for which the IC50 came to 304 nM.

Turning to `CC(C)C[C@H](NC(=O)OC(C)(C)Cc1ccccc1)C(=O)N[C@H](C=O)C[C@@H]1CCNC1=O` [Compound C46, 2-Methyl-1-phenylpropan-2-yl ((S)-4-methyl-1-oxo-1-(((S)-1-oxo-3-((S)-2-oxopyrrolidin-3-yl)propan-2-yl)amino)pentan-2-yl) carbamate], the IC50 was 1380 nM.

As to `CC(C)C[C@H](NC(=O)OC1(Cc2ccccc2)CC1)C(=O)N[C@@H](C[C@@H]1CCNC1=O)C(O)S(=O)(=O)O` (stereo partly drawn) [Compound C48, (2S)-2-((S)-2-(((1-Benzylcyclopropoxy)carbonyl)amino)-4-methylpentanamido)-1-hydroxy-3-((S)-2-oxopyrrolidin-3-yl) propane-1-sulfonate], the IC50 was determined as 241 nM.

As to `COc1cccc(CC2(OC(=O)N[C@@H](CC(C)C)C(=O)N[C@@H](C[C@@H]3CCNC3=O)C(O)S(=O)(=O)O)CC2)c1` (stereo partly drawn) [Compound C49, (2S)-1-Hydroxy-2-((S)-2-(((1-(3-methoxybenzyl)cyclopropoxy)carbonyl)amino)-4-methylpentanamido)-3-((S)-2-oxopyrrolidin-3-yl)propane-1-sulfonate], the IC50 was 266 nM.

Regarding `CC(C)C[C@H](NC(=O)OC(C)Cc1ccccc1)C(=O)N[C@@H](C[C@@H]1CCNC1=O)C(O)S(=O)(=O)O` (stereo partly drawn) [Compound C50, (2S)-1-Hydroxy-2-((2S)-4-methyl-2-((((1-phenylpropan-2-yl)oxy)carbonyl)amino)pentanamido)-3-((S)-2-oxopyrrolidin-3-yl)propane-1-sulfonate], the IC50 is 119 nM.

For the compound `CC(C)C[C@H](NC(=O)OC1CCN(C(=O)OC(C)(C)C)CC1)C(=O)N[C@@H](C[C@@H]1CCNC1=O)C(O)S(=O)(=O)O` (stereo partly drawn) [Compound C51, (2S)-2-((S)-2-((((1-(tert-butoxycarbonyl)piperidin-4-yl)oxy)carbonyl)amino)-4-methylpentanamido)-1-hydroxy-3-((S)-2-oxopyrrolidin-3-yl) propane-1-sulfonate], the 50% inhibitory concentration (IC50) worked out at 115 nM.

On to `O=CC(CC1CC(Cc2ccccc2)NC1=O)NC(=O)[C@H](CC1CCCCC1)NC(=O)OCc1cccc(Cl)c1` (stereo partly drawn) [Compound C52, 3-Chlorobenzyl ((2S)-1-((1-(5-benzyl-2-oxopyrrolidin-3-yl)-3-oxopropan-2-yl)amino)-3-cyclohexyl-1-oxopropan-2-yl)carbamate], for which the IC50 was 500 nM.

`CC(C)C[C@H](NC(=O)OC(Cc1ccccc1)c1ccccc1)C(=O)N[C@@H](C[C@@H]1CCNC1=O)C(O)S(=O)(=O)O` (stereo partly drawn) [Compound C53, (2S)-2-((2S)-2-(((1,2-Diphenylethoxy)carbonyl)amino)-4-methylpentanamido)-1-hydroxy-3-((S)-2-oxopyrrolidin-3-yl)propane-1-sulfonate]: the IC50 amounted to 40 nM.

`CC(=O)N1CCC2(CC1)CC(CC(C=O)NC(=O)[C@H](CC(C)C)NC(=O)OCc1cccc(Cl)c1)C(=O)N2` (stereo partly drawn) [Compound C54, 3-Chlorobenzyl ((2S)-1-((1-(8-acetyl-2-oxo-1,8-diazaspiro[4.5]decan-3-yl)-3-oxopropan-2-yl)amino)-4-methyl-1-oxopentan-2-yl)carbamate]: the IC50 was found to be 100 nM.

In the case of `CC(C)C[C@H](NC(=O)OC1(Cc2ccccc2)CCC1)C(=O)N[C@H](C=O)C[C@@H]1CCNC1=O` [Compound C56, 1-benzylcyclobutyl ((S)-4-methyl-1-oxo-1-(((S)-1-oxo-3-((S)-2-oxopyrrolidin-3-yl)propan-2-yl)amino)pentan-2-yl)carbamate], the IC50 was 600 nM.

Consider `CC(C)C[C@H](NC(=O)OC(C)(C)Cc1ccccc1)C(=O)N[C@@H](C[C@@H]1CCNC1=O)C(O)S(=O)(=O)O` (stereo partly drawn) [Compound C57, (2S)-1-hydroxy-2-((S)-4-methyl-2-((((2-methyl-1-phenylpropan-2-yl)oxy)carbonyl)amino)pentanamido)-3-((S)-2-oxopyrrolidin-3-yl)propane-1-sulfonate], for which the IC50 turned out to be 800 nM.

On to `CC(C)C[C@H](NC(=O)OC1CCN(C(=O)OC(C)(C)C)c2ccccc21)C(=O)N[C@@H](C[C@@H]1CCNC1=O)C(O)S(=O)(=O)O` (stereo partly drawn) [Compound C58, (2S)-2-((2S)-2-((((1-(tert-butoxycarbonyl)-1,2,3,4-tetrahydroquinolin-4-yl)oxy)carbonyl)amino)-4-methylpentanamido)-1-hydroxy-3-((S)-2-oxopyrrolidin-3-yl) propane-1-sulfonate], for which the IC50 is 100 nM.

`CC(C)C[C@H](NC(=O)OC1CCN(C(=O)OC(C)(C)C)c2ccccc21)C(=O)N[C@H](C=O)C[C@@H]1CCNC1=O` (stereo partly drawn) [Compound C59, Tert-butyl 4-((((S)-4-methyl-1-oxo-1-(((S)-1-oxo-3-((S)-2-oxopyrrolidin-3-yl)propan-2-yl)amino)pentan-2-yl)carbamoyl)oxy)-3,4-dihydroquinoline-1(2H)-carboxylate]: the IC50 is 100 nM.

On to `CC(C)C[C@H](NC(=O)OC1(Cc2cccc(OCc3ccccc3)c2)CC1)C(=O)N[C@H](C=O)C[C@@H]1CCNC1=O` [Compound C60, 1-(3-(Benzyloxy)benzyl)cyclopropyl ((S)-4-methyl-1-oxo-1-(((S)-1-oxo-3-((S)-2-oxopyrrolidin-3-yl)propan-2-yl)amino)pentan-2-yl)carbamate], for which the IC50 amounted to 600 nM.

The record behind these values is patent US20230159453A1 (COCRYSTAL PHARMA, INC., priority 2020, published 2023).
